According to patent publication US8691854B2, “Chemical compounds and the uses thereof as a medicine” (Trophos, priority 2005, dated 2014):

Test system: primary neurones isolated from rat striatum expressing mutated huntingtin
Test: Protection of striatum neurones in a death test induced by over-expression of a mutated form of huntingtin, GFP as reporter gene
Format: cell-based
Conditions: 0.3 μM compound; survival of GFP-positive cells minus DMSO, relative to BDNF (5 ng/ml) minus DMSO; active when ratio larger than 0.2
Protocol: Evaluation of the Protection Provided by the Compound of Formula I on Striatum Neurones in a Death Test Induced by Over-Expression of a Mutated Form of Huntingtine by Using GFP as Reporter Gene
Primary cultures of striatum neurones are prepared as described in the literature (Mao L. et al., Methods Mol. Med., 2003, 79: 379-86).
Before sowing, an expression vector containing a promoter element followed by the DNA coding for a truncated form of huntingtin which comprises the first 480 amino acids and 68 CAG codons (Saudou et al., Cell, 1998, 95:55-66), purified beforehand, is introduced by electroporation according to the procedure described by Raoul et al., (Neuron, 2002, 35:1067-83).
A second expression vector, also purified beforehand, containing DNA coding for the green fluorescent protein (GFP) (Columbia University) is also electroporated and is used as a reporter gene.
The cells which survive electroporation are sown at a density of 4,000 cells per well on 96-well plates. The culture is achieved in 175 μl of Neurobasal medium (GIBCO) complemented with final 1 mM of pyruvate and with B-27 1/100 (Beckton Dickinson). The cells are maintained in the culture for 6 days without changing the medium.
[…] Positive controls are made by adding BDNF (Brain-Derived Neurotrophic Factor) at 5 ng/ml (Tebu) finally. The negative controls only receive 0.5% DMSO.
Cell death is evaluated after 7 days by counting the number of living cells expressing GFP.
The activity of the compounds to be tested was evaluated by their capability of preventing death of striatum neurones grown in the Neurobasal medium, as compared with survival of striatum neurones in a medium supplemented with BDNF.
The results are expressed as a ratio evaluating survival of positive GFP cells in the presence of the compound to be tested. This is therefore the number of living cells after treatment with the compound to be tested, reduced by the number of living cells after treatment with DMSO, based on (divided by) the number of survival cells after treatment with BDNF, reduced by the number of living cells after treatment with DMSO.
This ratio therefore represents the survival percentage due to the tested compound relatively to survival induced by BDNF.
In this test, a compound is considered as being active when said ratio is larger than 0.2 i.e. when it has a neuroprotective activity at least equal to 20% of the neuroprotective activity of BDNF.

Q: `CS(=O)(=O)c1cccc(C=CC=NNc2nc(-c3ccc(C(F)(F)F)cc3)cs2)c1` [Example 24] was tested. Which GFP ratio did it give?
A: >0.2

Q: With `FC(F)(F)c1ccc(-c2csc(NN=CC=Cc3ccccn3)n2)cc1` [Example 26] as the molecule, how does the GFP ratio read?
A: >0.2

Same assay, conditions: 1 μM compound; survival of GFP-positive cells minus DMSO, relative to BDNF (5 ng/ml) minus DMSO; active when ratio larger than 0.2

Q: Which GFP ratio does the source give for `Fc1ccccc1C=CC=NNc1nc(-c2ccc(Cl)cc2)cs1` [Example 1] here?
A: >0.2

Q: Which GFP ratio does the source give for `N#Cc1cccc(C=CC=NNc2nc(-c3ccc(Cl)cc3)cs2)c1` [Example 10] here?
A: >0.2

Q: Which GFP ratio does the source give for `N#Cc1cccc(C=CC=NNc2nc(-c3ccc(C(F)(F)F)cc3)cs2)c1` [Example 11] here?
A: >0.2

Q: How did the GFP ratio turn out when `O=[N+]([O-])c1cccc(C=CC=NNc2nc(-c3ccc(C(F)(F)F)cc3)cs2)c1` [Example 13] was run?
A: >0.2

Q: For `Nc1cccc(C=CC=NNc2nc(-c3ccc(Cl)cc3)cs2)c1` [Example 14], which GFP ratio is on record?
A: >0.2

Q: How did the GFP ratio turn out when `Nc1cccc(C=CC=NNc2nc(-c3ccc(C(F)(F)F)cc3)cs2)c1` [Example 17] was run?
A: >0.2

Q: With `CS(=O)(=O)c1cccc(C=CC=NNc2nc(-c3ccc(Cl)cc3)cs2)c1` [Example 18] as the molecule, how does the GFP ratio read?
A: >0.2

Q: For `FC(F)(F)c1ccc(-c2csc(NN=CC=Cc3ccc4c(c3)OCO4)n2)cc1` [Example 21], which GFP ratio is on record?
A: >0.2

Q: `Clc1ccc(-c2csc(NN=CC=Cc3ccccn3)n2)cc1` [Example 25] was tested. Which GFP ratio did it give?
A: >0.2

Same assay, conditions: 3 μM compound; survival of GFP-positive cells minus DMSO, relative to BDNF (5 ng/ml) minus DMSO; active when ratio larger than 0.2

Q: For “3-(3-nitrophenyl)-2-propenal-[4-(4-chlorophenyl-2-thiazolyl)hydrazone [Example 2]”, which GFP ratio is on record?
A: >0.2

Q: `COc1ccccc1C=CC=NNc1nc(-c2ccc(Cl)cc2)cs1` [Example 3] was tested. Which GFP ratio did it give?
A: >0.2

Q: For `Oc1cccc(-c2csc(NN=CC=Cc3ccccc3)n2)c1` [Example 7], which GFP ratio is on record?
A: >0.2

Q: With `Cc1ccccc1C=CC=NNc1nc(-c2ccc(Cl)cc2)cs1` [Example 9] as the molecule, how does the GFP ratio read?
A: >0.2

Q: For `FC(F)(F)c1ccc(-c2csc(NN=CC=Cc3ccncc3)n2)cc1` [Example 16], which GFP ratio is on record?
A: >0.2

Q: Which GFP ratio does the source give for `N#Cc1cccc(C=CC=NNc2nc(-c3cccc(O)c3)cs2)c1` [Example 19] here?
A: >0.2

Q: Which GFP ratio does the source give for `COc1cc(Cl)ccc1-c1csc(NN=CC=Cc2ccccc2)n1` [Example 22] here?
A: >0.2

Q: How did the GFP ratio turn out when `Fc1ccc(C=CC=NNc2nc(-c3ccc(C(F)(F)F)cc3)cs2)cc1` [Example 29] was run?
A: >0.2

Same assay, conditions: 10 μM compound; survival of GFP-positive cells minus DMSO, relative to BDNF (5 ng/ml) minus DMSO; active when ratio larger than 0.2

Q: Which GFP ratio does the source give for “3-(2-chlorophenyl)-2-propenal-[4-(4-chlorophenyl-2-thiazolyl)hydrazone [Example 12]” here?
A: >0.2

Q: For `COc1cccc(C=CC=NNc2nc(-c3ccc(Cl)cc3)cs2)c1` [Example 6], which GFP ratio is on record?
A: >0.2

Q: Which GFP ratio does the source give for `Clc1ccc(-c2csc(NN=CC=Cc3ccncc3)n2)cc1` [Example 8] here?
A: >0.2
